Assay results published in PubChem BioAssay AID2060491 (Molecular Pharmacology Branch, DTP, NCI, 2025).
Where “and” joins values, the source holds several entries; their conditions need not be identical. Identical values can stand only once.

Test system: 857933-349-R-J2-PDC complex spheroids, viability
Assay: Anticancer human tumor 857933-349-R-J2-PDC patient-derived colon adenocarcinoma cell line growth inhibition [GQUAD]
Settings: for viability, T/C: stronger effect = lower value
Description: DNA G-quadruplex Stabilizer Agents in Combinations in Complex Spheroids
A high-throughput screen of multi-cell type tumor spheroids was designed to identify active combinations of DNA G-quadruplex stabilizer agents and targeted small molecules. Complex spheroids include a stromal component modeled by human endothelial cells (HUVEC) and fibroblasts modeled by human mesenchymal stem cells (MSCs). The concentration ranges selected for each drug and investigational agent were based upon clinically achievable concentrations if the clinical Cmax of the agent was known.
Compounds. The drugs and investigational agents: pidnarulex (CX-5461; NSC782164), APTO-253 (NSC789042), BRACO-19 (NSC847499), peposertib (NSC802822), ceralasertib (NSC780249), elimusertib (NSC800525), camonsertib (NSC841442), AZD-1390 (NSC803789), olaparib (NSC753686), talazoparib (NSC767125), ART-558 (NSC835418), sotorasib (NSC818433), MRTX-1133 (NSC836407), SN-38 (NSC673596), topotecan (NSC609699), etoposide (NSC141540), doxorubicin (NSC123127), gemcitabine (NSC613327), 5-fluorouracil (NSC19893), paclitaxel (NSC125973), vemurafenib (NSC761431), panobinostat (NSC761190), R-306465 (JNJ-16241199; NSC773264), adavosertib (NSC754352), TP-3654 (NSC805149), carboplatin (NSC241240), KSQ-4279 (NSC840948), and staurosporine (NSC755774) were obtained from the National Cancer Institute (NCI) Developmental Therapeutics Program Chemical Repository (34). The FDA-approved anticancer drug set is available from the NCI Developmental Therapeutics Program. […] The stock solutions were prepared in dimethyl sulfoxide (DMSO, Sigma-Aldrich, St. Louis, MO, cat. D2650) at 800-fold the tested concentration and stored at -70 degrees C prior to their use. All drugs and investigational agents were tested over a range starting from a high concentration at or near the clinical Cmax and decreasing in half-log increments. If the clinical Cmax for an agent had not been determined, the highest concentration tested was 10 microM.
2.3 Cell Culture. All cells were maintained in an incubator at 37 degrees C and 5% CO2 with 95% humidity. The PDC lines were cultured according to standard operating procedures established by the NCI PDMR. All PDCs were thawed and cultured in Matrigel-coated flasks prepared with a working solution of 1X Ham's F-12 nutrient mix, without supplementation (Invitrogen, cat. 11765054), 100 U/mL penicillin-streptomycin (Invitrogen, cat. 15140122), and 2.5% Matrigel (Corning Inc., cat. 354248) for the first three passages. The 857933-349-R-J2-PDC line was cultured in 6C/Colon 1B media, which includes advanced DMEM/F-12 (Thermo Fisher Scientific, cat. 12634028), 10 mM HEPES (Thermo Fisher Scientific, cat. 15630080), 1X GlutaMAX supplement (Thermo Fisher Scientific, cat. 35050061), 0.1 mg/mL primocin (InvivoGen, cat. ant-pm-2), 10% defined fetal bovine serum, heat inactivated (HyClone Laboratories Inc., cat. SH30070.03HI), 50% L-WRN conditioned media (ATCC, cat. CRL-3276), 1.25 mM N-Acetyl-L-cysteine (Sigma-Aldrich, cat. A9165), 10 mM nicotinamide (Sigma-Aldrich, cat. N0636), 1X B-27 supplement (Thermo Fisher Scientific, cat. 17504044), 1X N-2 supplement (Thermo Fisher Scientific, cat. 17502048), 10 microM Y-27632 dihydrochloride (Tocris Bioscience, cat. 1254), and 50 ng/mL human EGF recombinant protein (Thermo Fisher Scientific, cat. PHG0311). The 485176-168-R4-J1-PDC line was cultured in Panc media, which includes all 6C/Colon 1B media components plus 100 ng/mL human FGF-10 (Thermo Fisher Scientific, cat. 100-26), 500 nM SB-431542 (Selleckchem, cat. S1067), and gastrin (Tocris, cat. 3006).
[…]

[1] = curve of first compound, second compound 0.0316 µM
[2] = curve of first compound, second compound 0.1 µM
[3] = curve of first compound, second compound 0.316 µM
[4] = curve of first compound, second compound 1 µM
[5] = curve of first compound, second compound 3.16 µM
[6] = curve of first compound, second compound 10 µM
[7] = second compound 0.0316 µM, first compound 0.0316 µM
[8] = second compound 0.0316 µM, first compound 0.316 µM
[9] = second compound 0.1 µM, first compound 0.0316 µM
[10] = second compound 0.1 µM, first compound 0.316 µM
[11] = second compound 0.316 µM, first compound 0.0316 µM
[12] = second compound 0.316 µM, first compound 0.316 µM
[13] = second compound 1 µM, first compound 0.0316 µM
[14] = second compound 1 µM, first compound 0.316 µM
[15] = second compound 3.16 µM, first compound 0.0316 µM
[16] = second compound 3.16 µM, first compound 0.316 µM
[17] = second compound 10 µM, first compound 0.0316 µM
[18] = second compound 10 µM, first compound 0.316 µM
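Note: spheroids exposed to compounds for one week before readout.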
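Throughout, for viability, T/C: percent viability relative to vehicle DMSO wells taken as 100%.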

## O=c1[nH]cc(F)c(=O)[nH]1
Compound 0.0316 µM
  viability, T/C: 105% and 101% and 108%
Compound 0.1 µM
  viability, T/C: 88% and 103% and 95.2%
Compound 0.316 µM
  viability, T/C: 99.2% and 102% and 99.4%
Compound 1 µM
  viability, T/C: 69.5% and 66.1% and 91.1%
Compound 3.16 µM
  viability, T/C: 35.9% and 40.5% and 63.2%
Compound 10 µM
  viability, T/C: 22.8% and 19.8% and 47.5%
Curve of compound
  IC50: 1950 nM and 2010 nM and 8270 nM

## CC1COCCN1c1cc(-c2ccnn2C)c2ccnc(-c3ccn[nH]3)c2n1 (configuration not stated)
Compound 0.0316 µM
  viability, T/C: 75.8% and 95.2% and 75.5%
Compound 0.1 µM
  viability, T/C: 52.4% and 84.3% and 52.1%
Compound 0.316 µM
  viability, T/C: 50.2% and 75.8% and 40.3%
Compound 1 µM
  viability, T/C: 46.9% and 63.2% and 44.1%
Compound 3.16 µM
  viability, T/C: 55.8% and 55.3% and 45.5%
Compound 10 µM
  viability, T/C: 51.8% and 61.9% and 43.6%

## CC[C@@]1(O)C(=O)OCc2c1cc1n(c2=O)Cc2cc3c(CN(C)C)c(O)ccc3nc2-1 + Cc1[nH]c2ccc(F)cc2c1-c1nc2c3cccnc3c3ncccc3c2[nH]1
[1]
  IC50: 153 nM
[2]
  IC50: 130 nM
[3]
  IC50: 144 nM
[4]
  IC50: 164 nM
[5]
  IC50: 132 nM
[6]
  IC50: 192 nM
Second compound 0.0316 µM, first compound 0.000999 µM
  viability, T/C: 96.7%
Second compound 0.0316 µM, first compound 0.00316 µM
  viability, T/C: 94.6%
Second compound 0.0316 µM, first compound 0.00999 µM
  viability, T/C: 89.8%
[7]
  viability, T/C: 63.5%
Second compound 0.0316 µM, first compound 0.0999 µM
  viability, T/C: 60.8%
[8]
  viability, T/C: 39.6%
Second compound 0.1 µM, first compound 0.000999 µM
  viability, T/C: 91.8%
Second compound 0.1 µM, first compound 0.00316 µM
  viability, T/C: 99.7%
Second compound 0.1 µM, first compound 0.00999 µM
  viability, T/C: 90.2%
[9]
  viability, T/C: 67.7%
Second compound 0.1 µM, first compound 0.0999 µM
  viability, T/C: 56.6%
[10]
  viability, T/C: 39.7%
Second compound 0.316 µM, first compound 0.000999 µM
  viability, T/C: 102%
Second compound 0.316 µM, first compound 0.00316 µM
  viability, T/C: 93.6%
Second compound 0.316 µM, first compound 0.00999 µM
  viability, T/C: 97.6%
[11]
  viability, T/C: 72.6%
Second compound 0.316 µM, first compound 0.0999 µM
  viability, T/C: 54.9%
[12]
  viability, T/C: 42.8%
Second compound 1 µM, first compound 0.000999 µM
  viability, T/C: 103%
Second compound 1 µM, first compound 0.00316 µM
  viability, T/C: 89.1%
Second compound 1 µM, first compound 0.00999 µM
  viability, T/C: 92.8%
[13]
  viability, T/C: 73.9%
Second compound 1 µM, first compound 0.0999 µM
  viability, T/C: 60.5%
[14]
  viability, T/C: 36.6%
Second compound 3.16 µM, first compound 0.000999 µM
  viability, T/C: 97.8%
Second compound 3.16 µM, first compound 0.00316 µM
  viability, T/C: 95.7%
Second compound 3.16 µM, first compound 0.00999 µM
  viability, T/C: 88.8%
[15]
  viability, T/C: 90.8%
Second compound 3.16 µM, first compound 0.0999 µM
  viability, T/C: 53.4%
[16]
  viability, T/C: 39.2%
Second compound 10 µM, first compound 0.000999 µM
  viability, T/C: 105%
Second compound 10 µM, first compound 0.00316 µM
  viability, T/C: 86.2%
Second compound 10 µM, first compound 0.00999 µM
  viability, T/C: 89.4%
[17]
  viability, T/C: 73.7%
Second compound 10 µM, first compound 0.0999 µM
  viability, T/C: 62.6%
[18]
  viability, T/C: 40.4%

## C#Cc1c(F)ccc2cc(O)cc(-c3ncc4c(N5CC6CCC(C5)N6)nc(OCC56CCCN5CC(F)C6)nc4c3F)c12 (configuration not stated) + Cc1[nH]c2ccc(F)cc2c1-c1nc2c3cccnc3c3ncccc3c2[nH]1
[1]
  IC50: > 10000 nM
[2]
  IC50: > 10000 nM
[3]
  IC50: > 10000 nM
[4]
  IC50: > 10000 nM
[5]
  IC50: > 10000 nM
[6]
  IC50: > 10000 nM
[7]
  viability, T/C: 109%
Second compound 0.0316 µM, first compound 0.1 µM
  viability, T/C: 96.3%
[8]
  viability, T/C: 91.9%
Second compound 0.0316 µM, first compound 1 µM
  viability, T/C: 80.7%
Second compound 0.0316 µM, first compound 3.16 µM
  viability, T/C: 74.3%
Second compound 0.0316 µM, first compound 10 µM
  viability, T/C: 63.9%
[9]
  viability, T/C: 104%
Second compound 0.1 µM, first compound 0.1 µM
  viability, T/C: 98.5%
[10]
  viability, T/C: 89.2%
Second compound 0.1 µM, first compound 1 µM
  viability, T/C: 85.2%
Second compound 0.1 µM, first compound 3.16 µM
  viability, T/C: 71.3%
Second compound 0.1 µM, first compound 10 µM
  viability, T/C: 66.7%
[11]
  viability, T/C: 101%
Second compound 0.316 µM, first compound 0.1 µM
  viability, T/C: 90.8%
[12]
  viability, T/C: 86.3%
Second compound 0.316 µM, first compound 1 µM
  viability, T/C: 78.4%
Second compound 0.316 µM, first compound 3.16 µM
  viability, T/C: 81.7%
Second compound 0.316 µM, first compound 10 µM
  viability, T/C: 70.1%
[13]
  viability, T/C: 98.2%
Second compound 1 µM, first compound 0.1 µM
  viability, T/C: 87.5%
[14]
  viability, T/C: 93.3%
Second compound 1 µM, first compound 1 µM
  viability, T/C: 78.8%
Second compound 1 µM, first compound 3.16 µM
  viability, T/C: 86.7%
Second compound 1 µM, first compound 10 µM
  viability, T/C: 75.7%
[15]
  viability, T/C: 94.3%
Second compound 3.16 µM, first compound 0.1 µM
  viability, T/C: 83.2%
[16]
  viability, T/C: 81.6%
Second compound 3.16 µM, first compound 1 µM
  viability, T/C: 73.3%
Second compound 3.16 µM, first compound 3.16 µM
  viability, T/C: 80.8%
Second compound 3.16 µM, first compound 10 µM
  viability, T/C: 74.3%
[17]
  viability, T/C: 90.4%
Second compound 10 µM, first compound 0.1 µM
  viability, T/C: 93.7%
[18]
  viability, T/C: 87%
Second compound 10 µM, first compound 1 µM
  viability, T/C: 79.9%
Second compound 10 µM, first compound 3.16 µM
  viability, T/C: 78.8%
Second compound 10 µM, first compound 10 µM
  viability, T/C: 66.8%
